Experimental data published in patent US20240270762A1, “PENICILLIN-BINDING PROTEIN INHIBITORS” (priority 2021, published 2024).
Converted amounts (≈) assume the structure as drawn.

Columns and labels:
[1] = biological target: T1, PBP3 from Escherichia coli (K-12) (Escherichia coli, UniProt P0AD68); assay: Bocillin-FL fluorescence polarization competition binding, E. coli PBP3
T1 construct: made in house
Method in brief: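 Purified PBP was preincubated with inhibitor (E. coli PBP3 1.5 μM, 30 min; P. aeruginosa PBP3 0.75 μM, A. baumannii PBP3 0.2 μM and PBP1a 1 μM, 15 min), then Bocillin-FL (0.1 μM; 0.05 μM for PBP1a) added and FP read up to 60 min. EC50 = 50% loss of bound probe.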

[2] = biological target: T2, PBP3 from Acinetobacter baumannii (ATCC 19606) (Acinetobacter baumannii, UniProt A0ABX6CK25); assay: Bocillin-FL fluorescence polarization competition binding, A. baumannii PBP3; conditions: fluorescence polarization competition binding assay using Bocillin-FL; read-out: A. baumannii PBP3 Potency
T2 sequence (A0ABX6CK25 64-610): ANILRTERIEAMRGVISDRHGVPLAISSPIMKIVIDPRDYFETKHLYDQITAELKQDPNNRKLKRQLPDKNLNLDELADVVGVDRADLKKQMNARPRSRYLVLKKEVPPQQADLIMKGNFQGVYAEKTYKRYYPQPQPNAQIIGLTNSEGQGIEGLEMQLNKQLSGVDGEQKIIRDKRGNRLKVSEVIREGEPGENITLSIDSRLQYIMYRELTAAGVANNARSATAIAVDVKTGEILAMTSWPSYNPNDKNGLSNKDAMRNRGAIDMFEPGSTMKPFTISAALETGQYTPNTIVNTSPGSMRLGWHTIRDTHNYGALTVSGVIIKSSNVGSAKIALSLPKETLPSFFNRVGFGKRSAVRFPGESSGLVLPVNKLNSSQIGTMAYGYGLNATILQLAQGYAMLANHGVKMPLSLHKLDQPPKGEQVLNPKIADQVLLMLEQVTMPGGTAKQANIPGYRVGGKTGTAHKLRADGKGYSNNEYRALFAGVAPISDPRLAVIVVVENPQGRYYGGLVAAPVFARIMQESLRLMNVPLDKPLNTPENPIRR
Excerpt: To determine the ability of boronic acid-based test PBP inhibitors to bind Penicillin Binding Proteins (PBPs), Bocillin-FL (fluorescently-labeled penicillin V; ThermoFisher Scientific) was used in a fluorescence polarization (FP) competition binding assay to assess inhibitor binding to PBP3 from Escherichia coli (K-12), PBP3 from Pseudomonas aeruginosa (PAO1), PBP1a and PBP3 from Acinetobacter baumannii (ATCC 19606), and PBP2 from Neisseria gonorrhoeae (FA19). PBPs were cloned and purified as described previously (E. coli PBP3, King, D. T, et al., ACS Infectious Diseases 2015, 1, 175-184; P. aeruginosa PBP3, Han et. al., PNAS 2010, 107 (51), 22002-22007; A. baumannii PBPs, Penwell et. al., Antimicrob. Agents Chemother. 2015, 59 (3), 1680-1689; N. gonorrhoeae PBP2, Singh et. al., J. Biol. Chem. 2019, 294 (38), 14020-14032). To establish assay conditions for competition binding, enzyme titration/saturation binding experiments were initially performed. Bocillin-FL was prepared at 0.2 μM in a buffer comprised of 50 mM Hepes (pH 8.0), 300 mM NaCl and 10% (v/v) glycerol for reactions with E. coli, P. aeruginosa and N. gonorrhoeae PBPs, and 25 mM Tris (pH 8.0), 200 mM NaCl, 10% (v/v) glycerol and 0.005% (v/v) Tween 20 for reactions with A. baumannii PBPs. Saturation binding was performed by mixing 40 μl of PBP solutions ranging in concentrations from 0-24 μM with 40 μl of the 0.2 μM Bocillin-FL solution, in individual wells of a black 384-well microplate. FP was measured immediately upon mixing (Excitation, 490 nm; Emission, 520 nm; g-factor, 0.96), using a Cytation3 (BioTek) microplate reader and measured continuously for up to 120 minutes. The FP response stabilized after 15 minutes for P. aeruginosa and A. baumannii PBP3, 30 minutes for E. coli PBP3 and A. baumannii PBP1a, and less than 1 minute for N. gonorrhoeae PBP2. […] The competition binding assay (80 μl final volume) was validated using beta-lactams and PBPs at final concentrations of: 1.5 μM for E. coli PBP3; 0.75 μM for P. aeruginosa PBP3; 1 μM for A. baumannii PBP1a; 0.2 μM for A. baumannii PBP3; and 0.25 μM for N. gonorrhoeae PBP2. Bocillin-FL was at 0.1 μM (0.05 μM with A. baumannii PBP1a) and beta-lactam concentrations ranged from 0-1,000 μM. E. coli PBP3 was incubated with increasing concentrations of ampicillin in a black 384-well microplate (Corning) for 30 minutes. P. aeruginosa PBP3 was incubated for 15 minutes with aztreonam, whereas A. baumannii PBP1a and PBP3 were incubated for 15 minutes with meropenem, and then Bocillin-FL was added followed immediately by the FP measurement for up to 60 minutes. […] The beta-lactam potency was reported as the concentration of beta-lactam required to reduce the amount of PBP bound-Bocillin-FL by 50% (EC50). […] The EC50 of aztreonam was determined to be <0.5 μM for P. aeruginosa PBP3. […] Binding assays for boronic acid PBP inhibitors were performed in an identical fashion for the respective PBPs.

P. aeruginosa CDC-0095 = assay: microbe, parasite or virus in culture; format: cell-based; conditions: Pseudomonas aeruginosa, CDC0095, read-out: Minimum inhibitory concentration, P. aeruginosa CDC-0095
A. baumannii CDC-0045 = assay: microbe, parasite or virus in culture; format: cell-based; conditions: Acinetobacter baumannii, CDC0045, read-out: MIC, A. baumannii CDC-0045
A. baumannii CDC-0033 = assay: microbe, parasite or virus in culture; format: cell-based; conditions: Acinetobacter baumannii, CDC0033, read-out: MIC, A. baumannii CDC-0033
P. aeruginosa ATCC 35151 = assay: microbe, parasite or virus in culture; format: cell-based; conditions: Pseudomonas aeruginosa, ATCC35151, read-out: Minimum inhibitory concentration, P. aeruginosa ATCC 35151
A. baumannii PBP2 = A. baumannii PBP2 (Acinetobacter baumannii, UniProt D0C8Z9); assay: Bocillin-FL competition binding via gel filtration, A. baumannii PBP2
Method in brief: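 Competitive equilibrium binding with Bocillin-FL reporter: PBP pre-incubated with inhibitor dilutions, Bocillin-FL added, 15 min incubation. Labelled enzyme isolated by size-exclusion spin plates, fluorescence measured; EC50 obtained by fitting bound fraction against inhibitor concentration with a Hill-coefficient model.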

T1 sequence (P0AD68 1-577): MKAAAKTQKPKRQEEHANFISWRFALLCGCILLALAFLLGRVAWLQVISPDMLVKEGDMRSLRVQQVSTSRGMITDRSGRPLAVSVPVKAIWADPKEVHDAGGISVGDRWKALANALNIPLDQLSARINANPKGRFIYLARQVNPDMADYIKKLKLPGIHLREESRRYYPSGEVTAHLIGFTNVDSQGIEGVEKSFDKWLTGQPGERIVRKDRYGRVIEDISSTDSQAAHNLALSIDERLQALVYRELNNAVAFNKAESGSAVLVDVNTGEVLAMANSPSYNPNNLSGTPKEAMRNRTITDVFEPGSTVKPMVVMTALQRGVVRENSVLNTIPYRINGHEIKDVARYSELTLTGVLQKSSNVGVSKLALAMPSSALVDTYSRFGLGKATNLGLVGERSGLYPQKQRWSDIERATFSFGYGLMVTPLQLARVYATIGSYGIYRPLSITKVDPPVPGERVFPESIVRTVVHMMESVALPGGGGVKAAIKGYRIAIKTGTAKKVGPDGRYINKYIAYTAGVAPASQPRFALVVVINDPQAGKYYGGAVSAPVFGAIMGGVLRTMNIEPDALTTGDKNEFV
Sequence of A. baumannii PBP2 (D0C8Z9 whole entry): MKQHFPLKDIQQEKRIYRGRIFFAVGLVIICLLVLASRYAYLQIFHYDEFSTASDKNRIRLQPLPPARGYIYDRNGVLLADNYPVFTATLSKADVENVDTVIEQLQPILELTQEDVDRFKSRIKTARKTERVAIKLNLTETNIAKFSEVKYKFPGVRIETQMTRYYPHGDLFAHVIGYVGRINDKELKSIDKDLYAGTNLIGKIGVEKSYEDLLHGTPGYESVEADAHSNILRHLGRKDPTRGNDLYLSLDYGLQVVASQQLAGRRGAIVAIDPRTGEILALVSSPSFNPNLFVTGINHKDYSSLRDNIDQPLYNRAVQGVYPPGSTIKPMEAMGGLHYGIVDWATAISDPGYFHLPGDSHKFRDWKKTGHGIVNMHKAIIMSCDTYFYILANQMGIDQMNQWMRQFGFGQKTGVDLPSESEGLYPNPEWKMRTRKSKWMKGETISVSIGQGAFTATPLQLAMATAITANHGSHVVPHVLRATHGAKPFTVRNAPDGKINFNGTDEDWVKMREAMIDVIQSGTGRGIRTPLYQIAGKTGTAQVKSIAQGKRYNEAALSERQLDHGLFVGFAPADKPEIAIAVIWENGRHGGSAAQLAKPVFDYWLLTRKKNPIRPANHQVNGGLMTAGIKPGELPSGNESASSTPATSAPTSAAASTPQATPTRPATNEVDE

## CCN1CCN(C(=O)N[C@@H](C(=O)N[C@H]2Cc3ccc(F)c(C(=O)O)c3OB2O)c2ccc(P(=O)(O)O)cc2)C(=O)C1=O (single isomer, unassigned) [Example 10]
[1]
  EC50: < 10 µM
[2]
  IC50: < 10 µM

## CS(=O)(=O)N1CCN(C(=O)N[C@@H](C(=O)N[C@H]2Cc3cccc(C(=O)O)c3OB2O)c2ccc(P(=O)(O)O)c(F)c2F)C1=O (single isomer, unassigned) [Example 13]
[1]
  EC50: < 10 µM
[2]
  IC50: < 10 µM

## CS(=O)(=O)N1CCN(C(=O)N[C@@H](C(=O)N[C@H]2Cc3cccc(C(=O)O)c3OB2O)c2ccc(P(=O)(O)O)c(F)c2)C1=O (single isomer, unassigned) [Example 15]
[1]
  EC50: < 10 µM
[2]
  IC50: < 10 µM

## CS(=O)(=O)N1CCN(C(=O)N[C@@H](C(=O)N[C@H]2Cc3cccc(C(=O)O)c3OB2O)c2cc(F)c(P(=O)(O)O)c(F)c2)C1=O (single isomer, unassigned) [Example 18]
[1]
  EC50: < 10 µM
[2]
  IC50: < 10 µM

## CS(=O)(=O)N1CCN(C(=O)N[C@@H](C(=O)N[C@H]2Cc3ccc(F)c(C(=O)O)c3OB2O)c2ccc(P(=O)(O)O)c(F)c2)C1=O (single isomer, unassigned) [Example 19]
P. aeruginosa CDC-0095
  MIC: > 128 µg/mL
[1]
  EC50: < 10 µM
A. baumannii CDC-0045
  MIC: > 128 µg/mL
[2]
  IC50: < 10 µM
A. baumannii CDC-0033
  MIC: > 128 µg/mL
P. aeruginosa ATCC 35151
  MIC: 2 to 4 µg/mL (≈ 3.09 to 6.19 µM)

## N[C@@H](C(=O)N[C@H]1Cc2cccc(C(=O)O)c2OB1O)c1ccc(P(=O)(O)O)cc1 (single isomer, unassigned) [Example 171]
[1]
  EC50: > 250 µM
[2]
  IC50: 50 to 250 µM

## CS(=O)(=O)N1CCN(C(=O)NC(C(=O)N[C@H]2Cc3cccc(C(=O)O)c3OB2O)c2ccc(P(=O)(O)O)c(Cl)c2)C1=O (stereo partly drawn) [Example 11, (3R)-3-(2-(3-chloro-4-phosphonophenyl)-2-(3-(methylsulfonyl)-2-oxoimidazolidine-1-carboxamido)acetamido)-2-hydroxy-3,4-dihydro-2H-benzo[e][1,2]oxaborinine-8-carboxylic acid]
[1]
  EC50: < 10 µM
[2]
  IC50: < 10 µM

## NC(C(=O)N[C@H]1Cc2ccc(F)c(C(=O)O)c2OB1O)c1ccc(P(=O)(O)O)cc1 (stereo partly drawn) [Example 14, (3R)-3-(2-amino-2-(4-phosphonophenyl)acetamido)-7-fluoro-2-hydroxy-3,4-dihydro-2H-benzo[e][1,2]oxaborinine-8-carboxylic acid]
[1]
  EC50: > 250 µM
[2]
  IC50: > 250 µM

## CS(=O)(=O)N1CCN(C(=O)N[C@@H](C(=O)N[C@H]2Cc3ccc(F)c(C(=O)O)c3OB2O)c2ccc(P(=O)(O)O)c(F)c2F)C1=O [Example 16, (R)-3-((R)-2-(2,3-difluoro-4-phosphonophenyl)-2-(3-(methylsulfonyl)-2-oxoimidazolidine-1-carboxamido)acetamido)-7-fluoro-2-hydroxy-3,4-dihydro-2H-benzo[e][1,2]oxaborinine-8-carboxylic acid]
[1]
  EC50: < 10 µM
[2]
  IC50: < 10 µM

## CS(=O)(=O)N1CCN(C(=O)NC(C(=O)N[C@H]2Cc3cccc(C(=O)O)c3OB2O)c2ccc(P(=O)(O)O)c(O)c2)C1=O (stereo partly drawn) [Example 17, (3R)-2-hydroxy-3-(2-(3-hydroxy-4-phosphonophenyl)-2-(3-(methylsulfonyl)-2-oxoimidazolidine-1-carboxamido)acetamido)-3,4-dihydro-2H-benzo[e][1,2]oxaborinine-8-carboxylic acid]
[1]
  EC50: < 10 µM
[2]
  IC50: < 10 µM
A. baumannii PBP2
  EC50: 50 to 250 µM

## CCN1CCN(C(=O)NC(C(=O)N[C@H]2Cc3cccc(C(=O)O)c3OB2O)c2ccc(CP(=O)(O)O)cc2)C(=O)C1=O (stereo partly drawn) [Example 20, (3R)-3-(2-(4-ethyl-2,3-dioxopiperazine-1-carboxamido)-2-(4-(phosphonomethyl)phenyl)acetamido)-2-hydroxy-3,4-dihydro-2H-benzo[e][1,2]oxaborinine-8-carboxylic acid]
[1]
  EC50: < 10 µM
[2]
  IC50: < 10 µM

## CCN1CCN(C(=O)NC(C(=O)N[C@H]2Cc3cccc(C(=O)O)c3OB2O)c2ccc(P(=O)(O)O)c(O)c2)C(=O)C1=O (stereo partly drawn) [Example 21, (3R)-3-(2-(4-ethyl-2,3-dioxopiperazine-1-carboxamido)-2-(3-hydroxy-4-phosphonophenyl)acetamido)-2-hydroxy-3,4-dihydro-2H-benzo[e][1,2]oxaborinine-8-carboxylic acid]
[1]
  EC50: < 10 µM
[2]
  IC50: < 10 µM

## CC(=O)NC(C(=O)N[C@H]1Cc2cccc(C(=O)O)c2OB1O)c1ccc(P(=O)(O)O)cc1 (stereo partly drawn) [Example 26, (3R)-3-(2-acetamido-2-(4-phosphonophenyl)acetamido)-2-hydroxy-3,4-dihydro-2H-benzo[e][1,2]oxaborinine-8-carboxylic acid]
[1]
  EC50: 50 to 250 µM
[2]
  IC50: < 10 µM

## O=C(O)c1c(F)ccc2c1OB(O)[C@@H](NC(=O)C(NC(=O)N1CCN(Cc3ccc(O)c(O)c3Cl)C1=O)c1ccc(P(=O)(O)O)cc1)C2 (stereo partly drawn) [Example 46, (3R)-3-(2-(3-(2-chloro-3,4-dihydroxybenzyl)-2-oxoimidazolidine-1-carboxamido)-2-(4-phosphonophenyl)acetamido)-7-fluoro-2-hydroxy-3,4-dihydro-2H-benzo[e][1,2]oxaborinine-8-carboxylic acid]
P. aeruginosa CDC-0095
  MIC: < 1 µg/mL
[1]
  EC50: < 10 µM
[2]
  IC50: < 10 µM
A. baumannii PBP2
  EC50: 10 to 50 µM
P. aeruginosa ATCC 35151
  MIC: < 1 µg/mL

## CS(=O)(=O)N1CCN(C(=O)NC(C(=O)N[C@H]2Cc3cccc(C(=O)O)c3OB2O)c2ccc(P(=O)(O)O)c(F)c2O)C1=O (stereo partly drawn) [Example 48, (3R)-3-(2-(3-fluoro-2-hydroxy-4-phosphonophenyl)-2-(3-(methylsulfonyl)-2-oxoimidazolidine-1-carboxamido)acetamido)-2-hydroxy-3,4-dihydro-2H-benzo[e][1,2]oxaborinine-8-carboxylic acid]
[1]
  EC50: 10 to 50 µM
[2]
  IC50: 50 to 250 µM
